Reference: patent publication US20010044463A1, “Methods for controlling gram negative bacteria in mammals” (priority 1997, published 2001)

Experiments:
Staph ATCC 14775 = assay: Blood agar plate growth inhibition, control organism; format: cell-based
Description: (§1) Monensin (Sigma Cat. No. M-5273) was dissolved in 100% absolute ethanol (AAPER Alcohol and Chemical Co.) at a concentration of 20 mg/ml. Subsequent dilutions were made in ethanol immediately prior to use. Nigericin (Sigma Cat. No. N-7143) was dissolved in DMSO at 2 mg/ml. Subsequent dilutions were made in BHI medium (Brain heart infusion broth, Difco #0037-07-0) immediately prior to use.
(§2) Blood agar base (BAB) was prepared containing 1.5% agar and autoclaved. 20 ml samples of autoclaved BAB were poured into 50 mL tubes and placed in a 56° C. water bath.
(§3) 100 μl of a drug (final concentration equivalent to 1:200 of original concentration) and 1.2 ml of sheep blood (Colorado Senun Company # CS-1112) (blood diluted in a 1:1 buffer providing a 3% concentration of blood per 20 ml medium sample) were added to 20 ml sample of media and mixed. The mixed media preparation was poured into a petri dished and allowed to solidify.
Prior to inoculation of petri plates, bacteria or cultures were examined for morphology under a phase microscope to confirm motility and physical characteristics, e.g., spiral shaped. The organisms were washed off the plate into PBS (Phosphate buffered saline) (80.0 g NaCl, 2.0 g KCl, 2.4 g KH2PO4 11.5 g Na2HPO4 or 24.4 g Na2HPO4/2H2O per 1 liter deionized water, pH 7.2, sterilized by autoclaving) and diluted into BHI at a concentration of 10^8/ml (O.D. of 0.3 units diluted 1:30). Ten microliters of solution containing 10^6 organisms were spread onto a petri plate and grown under microaerophilic conditions for 3 days unless specified. […]
(§4) Inhibition of growth was determined by the amount of colonies present within the petri plate. The following factors were used for growth inhibition: ±=0-20 colonies, +=20-50 colonies, ++=50-200 colonies and +++=200+ colonies.

H. pylori ATCC 43504 = assay: Minimum Inhibitory Concentration (MIC) blood agar plate growth inhibition; format: cell-based, Helicobacter pylori
Description: Subsequent dilutions were made in ethanol immediately prior to use. […] Subsequent dilutions were made in BHI medium (Brain heart infusion broth, Difco #0037-07-0) immediately prior to use.
as §2
The mixed media preparation was poured into a petri dished and allowed to solidify.
(§5) Prior to inoculation of petri plates, bacteria or cultures were examined for morphology under a phase microscope to confirm motility and physical characteristics, e.g., spiral shaped. The organisms were washed off the plate into PBS (Phosphate buffered saline) (80.0 g NaCl, 2.0 g KCl, 2.4 g KH2PO4 11.5 g Na2HPO4 or 24.4 g Na2HPO4/2H2O per 1 liter deionized water, pH 7.2, sterilized by autoclaving) and diluted into BHI at a concentration of 10^8/ml (O.D. of 0.3 units diluted 1:30). Ten microliters of solution containing 10^6 organisms were spread onto a petri plate and grown under microaerophilic conditions for 3 days unless specified. Control organisms were grown under microaerophilic conditions.
as §4

[1] = system: H. pylori (urease positive) ATCC Number 51652; assay: as above; format: cell-based, Helicobacter pylori; conditions: Table VIII
Description: as §1, §2, §3, §5, §4

[2] = system: H. pylori (urease negative) (Wild strain of ATCC 43504); assay: as above; format: cell-based, Helicobacter pylori; conditions: Table III
Description: as §1, §2, §3, §5, §4

CC[C@@]1([C@@H]2O[C@@H]([C@H]3O[C@@](O)(CO)[C@H](C)C[C@@H]3C)C[C@@H]2C)CC[C@H]([C@]2(C)CC[C@]3(C[C@H](O)[C@@H](C)[C@@H]([C@@H](C)[C@@H](OC)[C@H](C)C(=O)O)O3)O2)O1 [Monensin, monensin]
(±) (±=0-20 colonies): growth (amount of colonies present within the petri plate) (H. pylori ATCC 43504; Tables IX-XIII, final drug concentration 0.39 μg/ml)
(+++***) (+++=200+ colonies): growth (amount of colonies present within the petri plate) (Staph ATCC 14775; Table XIV, Non-microaerophilic conditions, final drug concentration 1 μg/ml)
No growth: growth (amount of colonies present within the petri plate) (Staph ATCC 14775; Table XIV, Non-microaerophilic conditions, final drug concentration 10 μg/ml) | growth (amount of colonies present within the petri plate) (Staph ATCC 14775; Table XVI, Non-aerophilic conditions, final drug concentration 50 μg/ml) | growth (amount of colonies present within the petri plate) (Staph ATCC 14775; Table XVI, Non-aerophilic conditions, final drug concentration 100 μg/ml) | growth (amount of colonies present within the petri plate) (H. pylori ATCC 43504; Table I, final drug concentration 100 ng/ml) | growth (amount of colonies present within the petri plate) (H. pylori ATCC 43504; Table I, final drug concentration 1 μg/ml) | growth (amount of colonies present within the petri plate) (H. pylori ATCC 43504; Table I, final drug concentration 10 μg/ml) | growth (amount of colonies present within the petri plate) (H. pylori ATCC 43504; Table II, urease positive, final drug concentration 10 μg/ml) | growth (amount of colonies present within the petri plate) (H. pylori ATCC 43504; Table IV, urease positive, final drug concentration 1 μg/ml) | growth (amount of colonies present within the petri plate) (H. pylori ATCC 43504; Table IV, urease positive, final drug concentration 10 μg/ml) | growth (amount of colonies present within the petri plate) (H. pylori ATCC 43504; Table V, in the presence of 10 mM urea, final drug concentration 1 μg/ml, Nigericin assay done in duplicate) | growth (amount of colonies present within the petri plate) (H. pylori ATCC 43504; Table V, in the presence of 10 mM urea, final drug concentration 10 μg/ml, Nigericin assay done in duplicate) | growth (amount of colonies present within the petri plate) (H. pylori ATCC 43504; Table VI, in the presence of 2.5 mM urea, final drug concentration 1 μg/ml) | growth (amount of colonies present within the petri plate) (H. pylori ATCC 43504; Tables IX-XIII, final drug concentration 0.78 μg/ml) | growth (amount of colonies present within the petri plate) (H. pylori ATCC 43504; Tables IX-XIII, final drug concentration 6.25 μg/ml) | growth (amount of colonies present within the petri plate) (H. pylori ATCC 43504; Tables IX-XIII, final drug concentration 12.5 μg/ml) | growth (amount of colonies present within the petri plate) (H. pylori ATCC 43504; Tables IX-XIII, final drug concentration 25 μg/ml) | growth (amount of colonies present within the petri plate) (H. pylori ATCC 43504; Tables IX-XIII, final drug concentration 50 μg/ml) | growth (amount of colonies present within the petri plate) (H. pylori ATCC 43504; Tables IX-XIII, final drug concentration 100 μg/ml) | growth (amount of colonies present within the petri plate) ([1]; final drug concentration 0.098 μg/ml) | growth (amount of colonies present within the petri plate) ([1]; final drug concentration 0.195 μg/ml) | growth (amount of colonies present within the petri plate) ([1]; final drug concentration 0.39 μg/ml) | growth (amount of colonies present within the petri plate) ([1]; final drug concentration 0.78 μg/ml) | growth (amount of colonies present within the petri plate) ([1]; final drug concentration 1.56 μg/ml) | growth (amount of colonies present within the petri plate) ([1]; final drug concentration 3.125 μg/ml) | growth (amount of colonies present within the petri plate) ([1]; final drug concentration 6.25 μg/ml) | growth (amount of colonies present within the petri plate) ([1]; final drug concentration 12.5 μg/ml) | growth (amount of colonies present within the petri plate) ([1]; final drug concentration 25 μg/ml) | growth (amount of colonies present within the petri plate) ([1]; final drug concentration 50 μg/ml) | growth (amount of colonies present within the petri plate) ([1]; final drug concentration 100 μg/ml) | growth (amount of colonies present within the petri plate) ([2]; final drug concentration 1 μg/ml) | growth (amount of colonies present within the petri plate) ([2]; final drug concentration 10 μg/ml)
(+) (+=20-50 colonies): growth (amount of colonies present within the petri plate) (H. pylori ATCC 43504; Table I, final drug concentration 1 ng/ml) | growth (amount of colonies present within the petri plate) (H. pylori ATCC 43504; Table I, final drug concentration 10 ng/ml)
(+)^2 (+=20-50 colonies): growth (amount of colonies present within the petri plate) (Staph ATCC 14775; Table XVI, Non-aerophilic conditions, final drug concentration 1.56 μg/ml) | growth (amount of colonies present within the petri plate) (Staph ATCC 14775; Table XVI, Non-aerophilic conditions, final drug concentration 3.125 μg/ml) | growth (amount of colonies present within the petri plate) (Staph ATCC 14775; Table XVI, Non-aerophilic conditions, final drug concentration 6.25 μg/ml)
(++) (++=50-200 colonies): growth (amount of colonies present within the petri plate) (Staph ATCC 14775; Table XVI, Non-aerophilic conditions, final drug concentration 0.78 μg/ml) | growth (amount of colonies present within the petri plate) (H. pylori ATCC 43504; Tables IX-XIII, final drug concentration 0.195 μg/ml)
(±)^1 (±=0-20 colonies): growth (amount of colonies present within the petri plate) (Staph ATCC 14775; Table XVI, Non-aerophilic conditions, final drug concentration 12.5 μg/ml) | growth (amount of colonies present within the petri plate) (Staph ATCC 14775; Table XVI, Non-aerophilic conditions, final drug concentration 25 μg/ml)
(+++) (+++=200+ colonies): growth (amount of colonies present within the petri plate) (Staph ATCC 14775; Table XIV, Non-microaerophilic conditions, final drug concentration 0.1 ng/ml) | growth (amount of colonies present within the petri plate) (Staph ATCC 14775; Table XIV, Non-microaerophilic conditions, final drug concentration 1 ng/ml) | growth (amount of colonies present within the petri plate) (Staph ATCC 14775; Table XIV, Non-microaerophilic conditions, final drug concentration 10 ng/ml) | growth (amount of colonies present within the petri plate) (Staph ATCC 14775; Table XIV, Non-microaerophilic conditions, final drug concentration 100 ng/ml) | growth (amount of colonies present within the petri plate) (Staph ATCC 14775; Table XVI, Non-aerophilic conditions, final drug concentration 0.098 μg/ml) | growth (amount of colonies present within the petri plate) (Staph ATCC 14775; Table XVI, Non-aerophilic conditions, final drug concentration 0.195 μg/ml) | growth (amount of colonies present within the petri plate) (Staph ATCC 14775; Table XVI, Non-aerophilic conditions, final drug concentration 0.39 μg/ml) | growth (amount of colonies present within the petri plate) (H. pylori ATCC 43504; Table I, final drug concentration 0.1 ng/ml) | growth (amount of colonies present within the petri plate) (H. pylori ATCC 43504; Table II, urease positive, final drug concentration 1 ng/ml) | growth (amount of colonies present within the petri plate) (H. pylori ATCC 43504; Table II, urease positive, final drug concentration 100 ng/ml) | growth (amount of colonies present within the petri plate) (H. pylori ATCC 43504; Table II, urease positive, final drug concentration 0.1 nglml) | growth (amount of colonies present within the petri plate) (H. pylori ATCC 43504; Table IV, urease positive, final drug concentration 0.1 ng/ml) | growth (amount of colonies present within the petri plate) (H. pylori ATCC 43504; Table IV, urease positive, final drug concentration 1 ng/ml) | growth (amount of colonies present within the petri plate) (H. pylori ATCC 43504; Table IV, urease positive, final drug concentration 10 ng/ml) | growth (amount of colonies present within the petri plate) (H. pylori ATCC 43504; Table IV, urease positive, final drug concentration 100 ng/ml) | growth (amount of colonies present within the petri plate) (H. pylori ATCC 43504; Table V, in the presence of 10 mM urea, final drug concentration 0.1 ng/ml, Nigericin assay done in duplicate) | growth (amount of colonies present within the petri plate) (H. pylori ATCC 43504; Table V, in the presence of 10 mM urea, final drug concentration 1 ng/ml, Nigericin assay done in duplicate) | growth (amount of colonies present within the petri plate) (H. pylori ATCC 43504; Table V, in the presence of 10 mM urea, final drug concentration 10 ng/ml, Nigericin assay done in duplicate) | growth (amount of colonies present within the petri plate) (H. pylori ATCC 43504; Table V, in the presence of 10 mM urea, final drug concentration 100 ng/ml, Nigericin assay done in duplicate) | growth (amount of colonies present within the petri plate) (H. pylori ATCC 43504; Table VI, in the presence of 2.5 mM urea, final drug concentration 1 ng/ml) | growth (amount of colonies present within the petri plate) (H. pylori ATCC 43504; Table VI, in the presence of 2.5 mM urea, final drug concentration 10 ng/ml) | growth (amount of colonies present within the petri plate) (H. pylori ATCC 43504; Tables IX-XIII, final drug concentration 0.098 μg/ml) | growth (amount of colonies present within the petri plate) ([2]; final drug concentration 0.1 ng/ml) | growth (amount of colonies present within the petri plate) ([2]; final drug concentration 1 ng/ml) | growth (amount of colonies present within the petri plate) ([2]; final drug concentration 10 ng/ml) | growth (amount of colonies present within the petri plate) ([2]; final drug concentration 100 ng/ml)
0.39 µg/mL: MIC (H. pylori ATCC 43504; Helicobacter pylori, ATCC43504)
